From US6110962A, “11-aryl-benzo[B]naphtho[2,3-D]furans and 11-aryl-benzo[B]naphtho[2,3-D]thiophenes useful in the treatment of insulin resistance and hyperglycemia” (American Home Products Corporation, priority 1999, dated 2000) come the findings set out here.

Like-named read-outs stand apart in the source and are kept apart here.

Broadly, the IC50 is the concentration needed to halve the response being measured.

In one experiment the target is T1, Human recombinant PTP1B (Homo sapiens, UniProt P18031).
T1 construct: made in house
T1 sequence (P18031 1-435): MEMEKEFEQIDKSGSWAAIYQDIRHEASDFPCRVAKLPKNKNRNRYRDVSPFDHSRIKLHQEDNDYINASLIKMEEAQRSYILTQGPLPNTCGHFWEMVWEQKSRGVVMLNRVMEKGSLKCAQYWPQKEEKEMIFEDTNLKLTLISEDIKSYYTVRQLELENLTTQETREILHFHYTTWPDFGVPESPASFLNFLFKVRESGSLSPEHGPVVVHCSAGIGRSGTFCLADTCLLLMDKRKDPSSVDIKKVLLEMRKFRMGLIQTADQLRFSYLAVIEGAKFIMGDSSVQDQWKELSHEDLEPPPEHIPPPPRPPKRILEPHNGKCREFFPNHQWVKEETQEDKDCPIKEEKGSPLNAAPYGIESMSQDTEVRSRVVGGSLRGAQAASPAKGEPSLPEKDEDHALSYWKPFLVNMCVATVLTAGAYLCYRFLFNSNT
The experiment is classed as biochemical. The following applies: read-out: IC50.

A further experiment relates to diabetic (ob/ob) mice. Kind of experiment: Blood glucose lowering activity in diabetic (ob/ob) mice. In kind it is in vivo, mouse. To be noted: ob/ob mice; for change in vivo at 5 mg/kg / change in vivo at 10 mg/kg / change in vivo at 100 mg/kg / change in vivo at 25 mg/kg / change in vivo at 50 mg/kg / change in vivo at 75 mg/kg: Mus musculus, po. On the procedure:
The blood glucose lowering activity of representative compounds of this invention were determined in an in vivo standard procedure using diabetic (ob/ob) mice. The procedures used and results obtained are briefly described below. The non-insulin dependent diabetic (NIDDM) syndrome can be typically characterizes by obesity, hyperglycemia, abnormal insulin secretion, hyperinsulinemia and insulin resistance. […] In each test procedure, mice [Male or female ob/ob (C57 B1/6J) and their lean litermates (ob+ or +/+, Jackson Laboratories) ages 2 to 5 months (10 to 65 g)] of a similar age were randomized according to body weight into 4 groups of 10 mice. The mice were housed 5 per cage and are maintained on normal rodent chow with water ad libitum. Mice received test compound daily by gavage (suspended in 0.5 ml of 0.5% methyl cellulose); dissolved in the drinking water; or admixed in the diet. […] The dose is calculated based on the fed weekly body weight and is expressed as active moiety. […] Control mice received vehicle only. On the morning of Day 4, 7 or 14 two drops of blood (approximetly 50 ul) were collected into sodium fluoride containing tubes either from the tail vein or after decapitation. For those studies in which the compound was administered daily by gavage the blood samples were collected two hours after compound administration. The plasma was isolated by centrifugation and the concentration of glucose is measured enzymatically on an Abbott V. P. Analyzer. […] Analysis of variance followed by Dunett's Comparison Test (one-tailed) are used to estimate the significant difference between the plasma glucose values from the control group and the individual compound treated groups (CMS SAS Release 5.18).

Experiment [1] relates to rat hepatic microsomal PTPases. To be noted: PTPase activity, compound at 50 μM.
[2] abbreviates: 96 h, plasma glucose Day 4, 7 or 14, read-out: % Change Glucose from Vehicle.
Setting [3] is: read-out: % Change Insulin from Vehicle.
Where [4] appears, read: 96 h, dose 100 mg/Kg, plasma glucose Day 4, 7 or 14, read-out: % Change Glucose from Vehicle.
Setting [5] is: dose 100 mg/Kg, read-out: % Change Insulin from Vehicle.
[6] abbreviates: 96 h, dose 25 mg/Kg, plasma glucose Day 4, 7 or 14, read-out: % Change Glucose from Vehicle.
Setting [7] is: dose 25 mg/Kg, read-out: % Change Insulin from Vehicle.

Consider `O=C(O)[C@@H](Cc1ccccc1)Oc1c(Br)cc(-c2c3ccccc3c(Br)c3oc4ccccc4c23)cc1Br` [Example 216, (R)-2-[2,6-Dibromo-4-(6-bromo-benzo[b]naphtho[2,3-d]furan-11-yl)-phenoxy]-3-phenyl-propionic acid], for which the IC50 at Human recombinant PTP1B was 83 nM. In the experiment on diabetic (ob/ob) mice (setting [2]), the change in vivo at 5 mg/kg was -14.8% and the change in vivo at 10 mg/kg is -28.7%. In addition, in the experiment on diabetic (ob/ob) mice (setting [3]), the change in vivo at 5 mg/kg is -55.9% and the change in vivo at 10 mg/kg was -69.4%. In experiment [1], the “% Change from Control” value is -60.67%.

Regarding `O=C(O)[C@@H](Cc1ccccc1)Oc1ccc(-c2c3ccccc3cc3sc4ccccc4c23)cc1` [Example 117, (R)-2-[4-(Benzo[b]naphtho[2,3-d]thiophen-11-yl)-phenoxy]-3-phenyl-propionicacid], at Human recombinant PTP1B, the IC50 was determined as 1510 nM. In addition, the change in vivo at 100 mg/kg in the experiment on diabetic (ob/ob) mice (setting [4]) was -14.5%; in the experiment with diabetic (ob/ob) mice (setting [5]) it was -83.8%. The “% Change from Control” value in experiment [1] was -79.06%.

As for `C[C@@H](Oc1c(Br)cc(-c2c3ccccc3c(Br)c3sc4ccccc4c23)cc1Br)C(=O)O` [Example 121, (R)-2-[2,6-Dibromo-4-(6-bromo-benzo[b]naphtho[2,3-d]thiophen-11-yl)-phenoxy]-propionic acid], on Human recombinant PTP1B, the IC50 is 184 nM. The change in vivo at 10 mg/kg is 1.37% in the experiment on diabetic (ob/ob) mice (setting [2]) and -41.8% in the experiment on diabetic (ob/ob) mice (setting [3]). The change in vivo at 100 mg/kg in the experiment with diabetic (ob/ob) mice (setting [4]) is -54.6%; in the experiment on diabetic (ob/ob) mice (setting [5]) it was -87.8%. Moreover, in experiment [1], the “% Change from Control” value is -74.70%.

Take `O=C(O)[C@@H](CCN1C(=O)c2ccccc2C1=O)Oc1c(Br)cc(-c2c3ccccc3cc3sc4ccccc4c23)cc1Br` [Example 146, (R)-2-(4-Benzo[b]naphtho[2,3-d]thiophen-11-yl-2,6-dibromo-phenoxy)-4-(1,3-dioxo-1 , 3-dihydro-isoindol-2-yl)-butyric acid]: the IC50 on Human recombinant PTP1B was found to be 64 nM. The change in vivo at 100 mg/kg in the experiment with diabetic (ob/ob) mice (setting [4]) is -45.8%; in the experiment with diabetic (ob/ob) mice (setting [5]), -56.2%. In addition, the “% Change from Control” value in experiment [1] is reported as -71.95%.

Turning to `O=C(O)[C@H](Cc1ccccc1)Oc1c(Br)cc(-c2c3ccccc3c(Br)c3sc4ccccc4c23)cc1Br` [Example 111, (S)-2-[2,6-Dibromo-4-(6-bromo-benzo[b]naphtho[2,3-d]thiophen-11-yl)-phenoxy]-3-phenyl-propionic acid], the IC50 at Human recombinant PTP1B worked out at 62 nM. The change in vivo at 100 mg/kg in the experiment on diabetic (ob/ob) mice (setting [4]) is -39.4%; in the experiment on diabetic (ob/ob) mice (setting [5]), -17.9%. Further, in experiment [1], the “% Change from Control” value is reported as -76.45%.

With `Oc1cc(-c2c3ccccc3c(Br)c3sc4ccccc4c23)cc(Br)c1O` [Example 70, 3-Bromo-5-(6-bromo-benzo[b]naphtho[2,3-d]thiophen-11-yl)-benzene-1,2-diol], the IC50 at Human recombinant PTP1B was determined as 74 nM. For the same molecule, the change in vivo at 25 mg/kg in the experiment with diabetic (ob/ob) mice (setting [6]) is -28.6%; in the experiment on diabetic (ob/ob) mice (setting [7]), 45.7%. The “% Change from Control” value in experiment [1] was -29.03%.

Turning to `O=C(O)[C@@H](Cc1ccccc1)Oc1c(Br)cc(-c2c3ccccc3c(Br)c3sc4ccccc4c23)cc1Br` [Example 108, (R)-2-[2,6-Dibromo-4-(6-bromo-benzo[b]naphtho[2,3-d]thiophen-11-yl)-phenoxy]-3-phenyl-propionic acid], the IC50 at Human recombinant PTP1B was determined as 61 nM. In addition, in the experiment on diabetic (ob/ob) mice (setting [2]), the change in vivo at 10 mg/kg is -26.1%, the change in vivo at 50 mg/kg is -34.8% and the change in vivo at 75 mg/kg is -49.7%. Moreover, the change in vivo at 100 mg/kg in the experiment on diabetic (ob/ob) mice (setting [4]) was -45.8%. Besides, in the experiment with diabetic (ob/ob) mice (setting [3]), the change in vivo at 10 mg/kg was -30.3%, the change in vivo at 50 mg/kg is -84.8% and the change in vivo at 75 mg/kg is -89.6%. For the same molecule, the change in vivo at 100 mg/kg in the experiment on diabetic (ob/ob) mice (setting [5]) was -72.6%. For the same molecule, the “% Change Insulin from Vehicle” value with diabetic (ob/ob) mice (dose 25 mg/Kg) is -71.03%. Besides, the “% Change Glucose from Vehicle” value in the experiment with diabetic (ob/ob) mice (dose 25 mg/Kg, plasma glucose Day 4, 7 or 14, 25 mg/kg) is listed as -25.66%. Moreover, the “% Change from Control” value in experiment [1] (50 µM) is listed as -72.94%.

For the molecule `Cc1cc(-c2c3ccccc3c(C)c3sc4ccccc4c23)cc(C)c1O[C@H](Cc1ccccc1)C(=O)O` [Example 138, (R)-2-[2,6-Dimethyl-4-(6-methyl-benzo[b]naphtho[2,3-d]thiophen-11-yl)-phenoxy]-3-phenyl-propionic acid], on Human recombinant PTP1B, the IC50 turned out to be 636 nM. The change in vivo at 25 mg/kg with diabetic (ob/ob) mice (setting [6]) was -13.8%; with diabetic (ob/ob) mice (setting [7]), -91.9%. Moreover, the “% Change from Control” value in experiment [1] was -69.13%.

For `CC(C)c1cc(-c2c3ccccc3c(Br)c3sc4ccccc4c23)cc(C(C)C)c1OCC(=O)O` [Example 89, [4-(6-Bromo-benzo[b]naphtho[2,3-d]thiophen-11-yl)-2,6-diisopropyl-phenoxy)-acetic acid], at Human recombinant PTP1B, the IC50 amounted to 126 nM. In addition, the change in vivo at 10 mg/kg in the experiment with diabetic (ob/ob) mice (setting [2]) was -24.9%. Moreover, the “% Change from Control” value in experiment [1] is -61.04%.

`CCCCC(Oc1c(Br)cc(-c2c3ccccc3c(Br)c3sc4ccccc4c23)cc1Br)C(=O)O` (centres unmarked) [Example 123, 2-[2,6-Dibromo-4-(6-bromo-benzo[b]naphtho[2,3-d]thiophen-11-yl)-phenoxy]-hexanoic acid]: the IC50 on Human recombinant PTP1B was 82 nM. The change in vivo at 75 mg/kg was -24% in the experiment with diabetic (ob/ob) mice (setting [2]) and -40.9% in the experiment with diabetic (ob/ob) mice (setting [3]). Further, in experiment [1], the “% Change from Control” value was -87.44%.

On to `O=C(O)COc1ccc(-c2c3ccccc3c(Br)c3sc4ccccc4c23)cc1` [Example 87], for which the IC50 at Human recombinant PTP1B was found to be 1680 nM. The change in vivo at 100 mg/kg in the experiment on diabetic (ob/ob) mice (setting [4]) is -15.8%; in the experiment on diabetic (ob/ob) mice (setting [5]), -88%. In addition, the “% Change from Control” value in experiment [1] was -63.18%.

On to `O=C(O)[C@@H](Cc1ccccc1)Oc1c(Br)cc(-c2c3ccccc3c(I)c3sc4ccccc4c23)cc1Br` [Example 136], for which the IC50 at Human recombinant PTP1B turned out to be 50 nM. In addition, the values for the change in vivo at 25 mg/kg in the experiment with diabetic (ob/ob) mice (setting [6]) and in the experiment with diabetic (ob/ob) mice (setting [7]) were -23.6% and -52%, respectively. In addition, in experiment [1], the “% Change from Control” value is reported as -63.42%.

`C[C@@H](Oc1c(Br)cc(-c2c3ccccc3c(Sc3ccccc3)c3sc4ccccc4c23)cc1Br)C(=O)O` [Example 129, (R)-2-[2,6-Dibromo-4-(6-phenylsulfanyl-benzo[b]naphthor[2,3-d]thiophen-11-yl)-phenoxy]-propionic acid]: the IC50 at Human recombinant PTP1B was determined as 46 nM. Moreover, the change in vivo at 25 mg/kg in the experiment on diabetic (ob/ob) mice (setting [6]) is -14.9%; in the experiment with diabetic (ob/ob) mice (setting [7]) it was -54.6%. For the same molecule, the “% Change from Control” value in experiment [1] was -59.03%.

On to `Brc1cc(-c2c3ccccc3c(Br)c3sc4ccccc4c23)cc(Br)c1O[C@H](Cc1ccccc1)c1nnn[nH]1` [Example 172, (R)-5-{1-[2,6-Dibromo-4-(6-bromo-benzo[b]naphtho[2,3-d]thiophen-11-yl)-phenoxy]-2-phenyl-ethyl}-1 H-tetrazole], for which the IC50 at Human recombinant PTP1B came to 76 nM. Besides, the change in vivo at 100 mg/kg in the experiment with diabetic (ob/ob) mice (setting [4]) is 5.62%; in the experiment with diabetic (ob/ob) mice (setting [5]) it was -52%. The “% Change from Control” value in experiment [1] was -70.95%.

On to `O=C(O)COc1c(Br)cc(-c2c3ccccc3c(Br)c3sc4ccccc4c23)cc1Br` [Example 79, [2,6-Dibromo-4-(6-bromo-benzo[b]naphtho[2,3-d]thiophen-11-yl)-phenoxy]-acetic acid], for which the IC50 at Human recombinant PTP1B was determined as 386 nM. Moreover, the change in vivo at 100 mg/kg in the experiment on diabetic (ob/ob) mice (setting [4]) was -22.6%. For the same molecule, the “% Change Glucose from Vehicle” value in the experiment with diabetic (ob/ob) mice (dose 100 mg/Kg, plasma glucose Day 4, 7 or 14, 100 mg/kg) is recorded as -22.60%. Further, the “% Change from Control” value in experiment [1] is given as -82.58%.
